Test system: houseflies
Assay type: in vivo, common houseflies
Settings: 1 mm^3 acetonic solution to ventral abdomen under CO2 narcosis; kill rate after 4 hours
Procedure: ADMINISTRATION TEST WITH COMMON HOUSEFLIES
1 mm^3 of the acetonic solution of the active ingredients is administered to the ventral abdomen of houseflies under CO2 narcosis. The kill rate on the insects thus treated is determined after 4 hours, from which the mortality curve is calculated.

Q: How did the LD50 turn out when CNC(=O)Oc1cc(C)c(C)cc1Cl [Comparative substance III, 3,4-dimethyl-6-chloro-N-methylcarbamate] was run?
A: 10.0 /fly

Q: For CCc1cc(CC)cc(OC(=O)NC)c1 [3,5-diethyl-phenyl-N-methylcarbamate], which LD50 is on record?
A: 0.12 /fly

Q: How did the LD50 turn out when CNC(=O)Oc1cc(C)cc(C(C)C)c1 [Comparative substance II, 3-isopropyl-5-methyl-N-methylcarbamate] was run?
A: 0.26 /fly
